Data from PMC9993459, “A novel selective spleen tyrosine kinase inhibitor SKI-O-703 (cevidoplenib) ameliorates lupus nephritis and serum-induced arthritis in murine models” (Clinical and Experimental Immunology, 2022).

Tests used:
[1] = system: NZB/W F1 mice; experiment: NZB/W mouse model of SLE / lupus nephritis, oral dosing; assay type: in vivo; conditions: 30 mpk oral once daily
Protocol: NZB/W female mice aged 18 weeks were assigned to four groups by distributing mice by body weight and anti-dsDNA IgG titer equivalently across the groups. Each group of mice was administered orally with 42 mg per kg body weight (mpk) of SKI-O-703 dissolved in 50 mM citric acid, 84 mpk of SKI-O-703, 30 mpk of tofacitinib (Selleckchem) dissolved in 0.5% carboxymethyl cellulose (Sigma Aldrich) containing 0.025% Tween 20, or a mixture of the two vehicles. The drugs were given once daily up to 34 weeks of age. Body weight was measured every 2 weeks and serum was collected every 4 weeks. At the termination of the experiments (34 weeks of age), serum, urine, spleen, BM, and kidneys were removed post mortem and assayed by histopathological and biochemical methods as below. Levels of blood urea nitrogen (BUN) and creatinine were measured by Knotus (Incheon, Korea).
Kidneys removed from the NZB/W mice were fixed in 4% paraformaldehyde, embedded in paraffin, sectioned at 3 μm thickness, and stained with periodic acid-Schiff (PAS) and hematoxylin (Sigma Aldrich). […] Glomerular size was measured using Image J software. To assess the glomerular size and hypercellularity of each mouse, more than 20 glomeruli per mouse were individually examined and averaged.
Kidneys and spleens of NZB/W mice were embedded in OCT compound (Sakura Finetek, Torrance, CA, USA) and snap-frozen in liquid nitrogen. Frozen sections were fixed in acetone and blocked with 10% normal donkey serum (Sigma Aldrich). Kidney sections were stained with a 1:200 dilution of anti-IgG-biotin (Sigma Aldrich), anti-IgM-biotin (Southern Biotech) and anti-C3-biotin (Bioss), followed by reaction with 1:200-dilution of streptavidin-cy3 (Invitrogen). Spleen sections were stained with anti-GL7-FITC, anti-CD4-APC, and anti-IgD-PE (all from BD Biosciences or eBioscience). Fluorescence images were acquired using a TCS SP5 confocal microscope (Leica). The area of GCs composed with GL7^+ cells per image was calculated using ImageJ software (NIH, Bethesda, MD, USA).
Titers of anti-dsDNA IgG Ab were measured by ELISA, as described previously. In brief, sera were diluted 1/10 000 to 1/50 000 in PBS and applied to immunosorbent plates (Nunc) precoated with 5 μg/ml poly-L-lysine and 5 μg/ml thymic DNA (Sigma Aldrich). The serum containing the highest titer of anti-dsDNA IgG was serially diluted and used as standard. The plates were incubated with anti-mouse IgG-biotin (Sigma Aldrich) and streptavidin-HRP (BD Biosciences). The concentration of albumin in urine was measured by quantitative ELISA using a mouse albumin ELISA kit (Bethyl), according to the manufacturer’s instructions. The concentration of serum B-cell activating factor of the TNF family (BAFF) was quantitated using a BAFF/BLys/TNFSF13B ELISA Kit (R&D Systems).
Single-cell suspensions of spleen and LN cells were prepared as previously described. Joint tissues from hind paws of KSTA mice were dissected free of soft tissue and bones, digested with 100 μg/ml Liberase (Roche) for 45 min at 37 °C, and filtered through a 70-μm-pore cell strainer (SPL Life Sciences) to prepare single cell suspensions of synovial infiltrates. The single cell suspensions were stained with an appropriate combination of mAbs and analyzed by FACS. The mAbs used were: CD138-PE, B220-PerCP or -APC-cy7, FAS-PE, CD19-PerCP or -APC, CD21-FITC or -APC, CD43-APC, CD23-PE-cy7, CD8a-PE, CD25-APC-cy7, CXCR5-biotin, GL7-FITC, CD45.2-FITC, CD27-FITC, Ki-67-FITC, Gr-1-FITC, CD4-FITC or -APC-cy7, phospho-Syk-PE, CD11b-PE or -PerCP, PD-1-APC, CD44-APC-cy7, and F4/80-PerCP mAbs (all from BD Biosciences, eBioscience or Biolegend). Streptavidin-PerCP was purchased from BD Biosciences.
Splenic CD19^+ B cells from NZB/W mice were sorted by MACS, and lysed with Trizol reagent (Invitrogen) followed by standard methods of total RNA purification. The RNA was assayed by RT and quantitative PCR as described. […]

[2] = system: mouse primary B cells; experiment: CP670-dilution proliferation assay, BCR crosslinking (anti-IgM) stimulated B cells; assay type: cell-based; conditions: up to 1 μM
Protocol: Splenic CD19^+ B cells from C57BL/6 mice were sorted by MACS (Milteny Biotec), stained with 3 μM cell proliferation dye eFluor 670 (CP670; eBioscience), and cultured for 72 h in the presence of either 10 μg/ml LPS (Sigma Aldrich) or 5 μg/ml anti-mouse IgM (Jackson Immuno Research Laboratories), 10 μg/ml anti-CD40 mAb (Biolegend) and 10 ng/ml IL-4 (Peprotech), and assayed by FACS. To detect apoptotic cells, unstimulated cells were cultured for 24 h, stained with Annexin V and 7-aminoactinomycin D (7-AAD), and assayed by FACS.
Figure 2: in vitro effects of SKI-O -703 on the proliferation, survival, and differentiation of B cells. Mouse primary B cells were labeled with CP670, and stimulated with either anti-IgM mAb, CD40L and IL-4 (A) or LPS (B) for 72 h in the presence or absence of SKI-O-703 and tofacitinib at the indicated concentrations; they were then assayed by FACS. (C and D) Mouse primary B cells were cultured as in A and B for 24 h, stained with Annexin V and 7-AAD, and assayed by FACS. Representative FACS profiles and graphs displaying mean Annexin V-positivity are shown. (E) Human primary B cells were stimulated with CpG ODN plus IL-2 (to detect IgM and IgG) or CpG ODN 2006 plus IFN-α (to detect IL-6) in the presence or absence of inhibitors. The culture supernatants were assayed by ELISA. Graphs are expressed as % positivity relative to the controls (without inhibitor). […]

[3] = system: human primary B cells; experiment: IgM, IgG and IL-6 secretion by stimulated human primary B cells (ELISA); assay type: cell-based; conditions: human primary B cells
Protocol: Human CD19^+ B cells (Lonza) were pre-treated with inhibitors for 1 h and stimulated for 24 h with 50 nM CpG ODN 2006 plus 10 ng/ml IL-2 or 1 μM CpG ODN 2006 plus 20 ng/ml IFN-α. Culture supernatants were assayed by ELISA to detect secreted IgG, IgM, and IL-6, according to the manufacturer’s instructions.
Figure 2: in vitro effects of SKI-O -703 on the proliferation, survival, and differentiation of B cells. Mouse primary B cells were labeled with CP670, and stimulated with either anti-IgM mAb, CD40L and IL-4 (A) or LPS (B) for 72 h in the presence or absence of SKI-O-703 and tofacitinib at the indicated concentrations; they were then assayed by FACS. (C and D) Mouse primary B cells were cultured as in A and B for 24 h, stained with Annexin V and 7-AAD, and assayed by FACS. Representative FACS profiles and graphs displaying mean Annexin V-positivity are shown. (E) Human primary B cells were stimulated with CpG ODN plus IL-2 (to detect IgM and IgG) or CpG ODN 2006 plus IFN-α (to detect IL-6) in the presence or absence of inhibitors. The culture supernatants were assayed by ELISA. Graphs are expressed as % positivity relative to the controls (without inhibitor). The data are representative of 2–3 independent experiments. *P < 0.05, **P < 0.01, and ***P < 0.001, compared with vehicle control by two-tailed unpaired Students t-tests.

[4] = target: KOR; experiment: Kinase assay (LANCE Ultra TR-FRET), KOR; assay type: biochemical; conditions: kinase activity, TR-FRET
Protocol: Kinase assays were conducted in 384-well plates using LANCE ultra 66 time-resolved fluorescence resonance energy transfer (TR-FRET) methods, according to the manufacturer’s instructions (Perkin-Elmer). In brief, each kinase was pre-incubated with a serially diluted compound for 30 min, incubated with ULight poly-GT peptide substrate and ATP for up to 1 h. Thirty minutes after adding Eu-labeled anti-phosphopeptides Ab diluted in LANCE Detection Buffer, LANCE signals were measured with an EnVision multilabel reader (Perkin-Elmer).

Structure (SMILES)	Body weights ([1]; 18-34 weeks of age)	Spleen weights ([1]; 18-34 weeks of age)	Serum anti-dsDNA IgG Ab titer ([1]; trend to reduction at 26 and 30 weeks of age)	Proliferation and death of primary B and T cells [2]	IL-6 production ([3]; CpG ODN 2006 plus IFN-α)	Ab production ([3]; CpG ODN plus IL-2)	IC50 [4] [nM]
C[C@@H]1CCN(C(=O)CC#N)C[C@@H]1N(C)c1ncnc2[nH]ccc12 [tofacitinib, reference compound]	reduced both body weights and spleen weights	reduced both body weights and spleen weights	did not reach statistical significance	did not significantly inhibit	even increased IL-6 production	minimal effect	–
COc1cc(Nc2ncc(F)c(Nc3ccc4c(n3)NC(=O)C(C)(C)O4)n2)cc(OC)c1OC [R406, reference compound]	–	–	–	–	–	–	18.8
